Experimental data reported in paper PMC5491903, “The Selective Phosphoinoside-3-Kinase p110δ Inhibitor IPI-3063 Potently Suppresses B Cell Survival, Proliferation, and Differentiation” (Frontiers in Immunology, 2017).

How the values were obtained:
Assay type in all cases: cell-based
mouse B cells [1] = experiment: mouse B cell proliferation (CFSE); conditions: αIgM + IL-4, 72 h
Procedure: Next, we evaluated the effects of PI3K inhibitors on B cell proliferation. We stimulated CFSE-stained cells with αIgM + IL-4 or with LPS for 72 h, or with αCD40 + IL-4 or LPS + IL-4 for 96 h. Cells were treated with vehicle or GDC-0941, IPI-3063, IPI-443, or AS-252424 at various concentrations. […] IPI-443 caused a dose-dependent decrease in proliferation, whereas AS-252424 had no effect. […] In B cells stimulated with LPS + IL-4, the inhibitors had similar trends, but with greater variability (Figure 3D). […] Overall, these experiments establish that the selective p110δ inhibitor IPI-3063 is a very potent inhibitor of B cell survival and proliferation in vitro. In addition, selective p110γ inhibition alone had no effect on B cell survival or proliferation.
Total splenocytes (A,B) or purified B cells (C–E) were pretreated with inhibitors for 30 min, then stimulated with (A,B) αIgM + IL-4 for 72 h, (C–E) LPS + IL-4 for 96 h, LPS for 72 h, or αCD40 + IL-4 for 96 h. […] The experiments in panel (C) include low concentrations of IPI-3063 (0.01 and 0.1 nM) Total numbers were determined by the number of B220^+7AAD^−CFSE^lo cells. […]
Before cell surface staining, cells were incubated with TruStain fcX in FACS buffer (0.5% BSA + 0.02% NaN3 in 1× HBSS) to block Fc receptors for 10 min on ice. […] Flow cytometric data were analyzed using FlowJo software (TreeStar). […]

mouse B cells [2] = experiment: mouse B cell survival (B220+7AAD- viability, 48 h)
Procedure: To assess survival, purified mouse B cells were incubated for 48 h in either B-cell activating factor (BAFF) or interleukin-4 (IL-4) with various concentrations of IPI-3063 and IPI-443. […] The selective PI3K inhibitor IPI-3063 was very potent, achieving a significant decrease in B cell survival when present at 10 nM.
Total splenocytes were pretreated with inhibitors as indicated, then cultured with 10 ng/mL IL-4 (A) or 60 ng/mL of BAFF (B) for 48 h. Concentrations used were 1 nM, 10 nM, 100 nM, 1 µM for IPI-443 and 1, 10, 30, 100 nM for IPI-3063. AS252424 concentrations were 100 nM, 300 nM, and 1 µM, and GDC-0941 was at 500 nM. % viability was calculated by measuring % of B220^+7AAD^− cells. Samples were collected by time. (*P < 0.05, **P < 0.001, ***P < 0.0001 one-way ANOVA with Newman–Keuls multiple comparison test).

human B cells = experiment: human B cell proliferation (CFSE); conditions: CD40L + anti-human IgM/IgG + hIL-2 + hIL-21, 120 h
Procedure: We also tested the effects of these inhibitors on human B cell proliferation stimulated with human CD40L + anti-human IgM/IgG + hIL-2 + hIL-21. We stimulated CFSE-stained human B cells for 120 h in the presence of GDC-0941, IPI-3063, IPI-443, or AS-252424 at various concentrations. […] IPI-443 caused a dose-dependent decrease in proliferation, whereas AS-252424 had no effect.
(A–C) Purified human B cells were pretreated with inhibitors for 30 min, then stimulated with human CD40L + anti-human IgM/IgG + human IL-2 + human IL-21 for 120 h. Concentrations used were 1 nM, 10 nM, 100 nM, and 1 µM for IPI-443, and 0.1, 1, 10, and 100 nM for IPI-3063. AS252424 concentrations were 100 nM, 300 nM, and 1 µM, and GDC-0941 was at 500 nM. Total numbers and percent divided were determined by the number of CD19^+7AAD^−CFSE^lo cells. Samples were collected by time (*P < 0.05, **P < 0.001, ***P < 0.0001 one-way ANOVA with Newman–Keuls multiple comparison test).
Peripheral blood from normal volunteers was obtained through an Institutional Review Board-approved protocol. Peripheral blood mononuclear cells (PBMCs) were first purified from blood by density gradient centrifugation using Ficoll-Paque. […] B-cell purity was increased from 4% to >70% as measured by FACS analysis (FACSCalibur and CellQuest software; BD Biosciences) using anti-CD19 PE conjugated antibody (eBioscience). […]

SMILES	effect on proliferation (mouse B cells [1])	effect on survival (mouse B cells [2]; BAFF or IL-4, 48 h)	effect on proliferation (human B cells)	concentration that blocks/decreases proliferation (mouse B cells [1]) [nM]	concentration with significant decrease in B cell survival (mouse B cells [2]; BAFF, 48 h) [nM]	concentration that significantly reduces proliferation (human B cells) [nM]
O=C1NC(=O)/C(=C/c2ccc(-c3ccc(F)cc3O)o2)S1 [AS-252424, reference compound]	no effect	no significant effect	no effect	–	–	–
CC(C)n1c([C@H](C)Nc2ncnc(N)c2C#N)cc2cccc(-c3ccc(=O)n(C)c3)c2c1=O [IPI-3063]	–	–	–	1	10	≥ 1
